Where a name gives a salt, the structure may show the parent alone. Read-outs that look alike come from different tables or passages of the source.
Assays:
[1] = system: mouse acetylcholine bromide-induced abdominal constriction; assay: Mouse Acetylcholine Bromide-Induced Abdominal Constriction Assay (MAIT); assay type: in vivo; conditions: po; dose not given; acetylcholine bromide 5.5 mg/kg i.p. 30 minutes after drug
Procedure: Mouse Acetylcholine Bromide-Induced Abdominal Constriction Assay (MAIT)
The mouse acetylcholine bromide-induced abdominal constriction assay, as described by Collier et al. in Brit. J. Pharmacol. Chem. Ther., 32: 295-310, 1968, with minor modifications was used to assess analgesic potency of the compounds herein. The test drugs or appropriate vehicle were administered orally (p.o.) and 30 minutes later the animal received an intraperitoneal (i.p.) injection of 5.5 mg/kg acetylcholine bromide (Matheson, Coleman and Bell, East Rutherford, N.J.). The mice were then placed in groups of three into glass bell jars and observed for a ten minute observation period for the occurrence of an abdominal constriction response (defined as a wave of constriction and elongation passing caudally along the abdominal wall, accompanied by a twisting of the trunk and followed by extension of the hind limbs). The percent inhibition of this response to a nociceptive, stimulus (equated to % analgesia) was calculated as follows: The % Inhibition of response, i.e., % analgesia is equal to the difference between the number of control animals responding and the number of drug-treated animals responding times 100 divided by the number of control animals responding.
At least 15 animals were used for control and in each of the drug treated groups. […] The ED50 values and their 95% fiducial limits were determined by a computer assisted probit analysis.

[2] = target: T1, Alpha-2D Adrenergic Receptor (Rattus norvegicus, UniProt P22909); assay: Alpha-2D Adrenergic Receptor Binding Assay (3H-para-aminoclonidine, rat cortex membranes); conditions: for % inh of α2D: cells printed with % sign, test concentration not given
T1 construct: aliquots of the synaptic membrane fraction, the ligand ^3H-para-aminoclonidine and test drug; from tissue; host or cells: rat brain cortex, synaptic membrane fraction
T1 sequence (P22909 1-465): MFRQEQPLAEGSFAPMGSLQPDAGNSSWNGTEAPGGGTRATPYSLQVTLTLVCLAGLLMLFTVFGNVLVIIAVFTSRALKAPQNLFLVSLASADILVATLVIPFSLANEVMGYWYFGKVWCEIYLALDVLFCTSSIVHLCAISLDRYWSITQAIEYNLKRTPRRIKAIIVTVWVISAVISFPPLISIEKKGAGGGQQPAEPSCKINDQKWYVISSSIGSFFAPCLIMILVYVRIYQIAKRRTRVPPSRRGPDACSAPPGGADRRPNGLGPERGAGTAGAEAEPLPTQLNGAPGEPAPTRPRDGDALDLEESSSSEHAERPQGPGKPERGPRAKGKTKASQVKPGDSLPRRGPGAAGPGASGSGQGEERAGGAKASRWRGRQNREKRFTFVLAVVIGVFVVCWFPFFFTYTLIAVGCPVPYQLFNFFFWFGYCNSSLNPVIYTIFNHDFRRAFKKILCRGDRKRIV
Procedure: Alpha-2D Adrenergic Receptor Binding Assay
Male, Wistar rats (150-250 g, VAF, Charles River, Kingston, N.Y.) are sacrificed by cervical dislocation and their brains removed and placed immediately in ice cold HEPES buffered sucrose. The cortex is dissected out and homogenized in 20 volumes of HEPES sucrose in a Teflon™-glass homogenizer. The homogenate is centrifuged at 1000 g for 10 min, and the resulting supernatant centrifuged at 42,000 g for 10 min. The resulting pellet is resuspended in 30 volumes of 3 mM potassium phosphate buffer, pH 7.5, preincubated at 25° C. for 30 min and recentrifuged. The resulting pellet is resuspended as described above and used for the receptor binding assay. […] The incubation is terminated by filtration of the tube contents through glass fiber filter sheets. Following washing of the sheets with 10 mM HEPES buffer, the adhering radioactivity is quantified by liquid scintillation spectrometry.
Binding of the test drug to the receptor is determined by comparing the amount of radiolabeled ligand bound in control tubes without drug to the amount of radiolabeled ligand bound in the presence of the drug. Dose-response data are analyzed with LIGAND, a nonlinear curve fitting program designed specifically for the analysis of ligand binding data.

SMILES	% inh of MAIT [1] [po %]	Ki [2] [nM]	melting point [°C]	% inh of α2D [2] [%]	Ki ([2]; rat cortex synaptic membranes, ligand 3H-para-aminoclonidine, cells without % sign, read-out: α2D Ki) [nM]
Cc1ncccc1Cc1c[nH]cn1.Cl.Cl [Cp-1, 4-[(2-Methylpyrid-3-yl)methyl]-1H-imidazole Dihydrochloride]	93	7.1	236 to 237.5		
Cc1ncccc1CCc1c[nH]cn1.Cl.Cl [Cp-2, 4-[(2-Methylpyrid-3-yl)ethyl]-1H-imidazole Dihydrochloride]			258.5 to 263		
Cl.Cl.c1cncc(Cc2c[nH]cn2)c1 [Cp-3]	47			89	
Brc1cncc(Cc2c[nH]cn2)c1.O=C(O)/C=C/C(=O)O [Cp-4, 4-[(5-Bromopyridin-3-yl)methyl]-1H-imidazole Fumarate]	54		139 to 145	83	
Brc1cncc(CCc2c[nH]cn2)c1.O=C(O)/C=C/C(=O)O [Cp-5, 4-[(5-Bromopyridin-3-yl)ethyl]-1H-imidazole Fumarate]			156 to 158		
Cl.c1ccc(Cc2c[nH]cn2)nc1 [Cp-6, 4-[(Pyridin-2-yl)methyl]-1H-imidazole Hydrochloride]	40		197 to 200	83	
c1ccc(C(c2ccccn2)c2c[nH]cn2)cc1 (stereo not shown) [Cp-7, 4-[(Pyridin-2-yl)methylphenyl]-1H-imidazole]	13				1000
c1ccc2nc(Cc3c[nH]cn3)ccc2c1 [Cp-9]	20	1.6			
Cc1ncccc1C(C)c1c[nH]cn1 (stereo not shown) [Dihydrochloride]	33				
CC(c1cncc(Br)c1)c1c[nH]cn1 (stereo not shown) [Fumarate]	53				

Reference: US6465486B1 (Ortho-McNeil Pharmaceutical, Inc., priority 1999, dated 2002)
